Measured values published in article PMC8635125, “A Novel Dibenzoxazepine Attenuates Intracellular Salmonella Typhimurium Oxidative Stress Resistance” (Microbiology Spectrum, 2021).

Assays:
[1] = tested on: S. Typhimurium ATCC 14028; test: Efflux pump activity (Hoechst 33342 accumulation assay); assay type: cell-based, Salmonella enterica serovar Typhimurium; conditions: data not shown in text; Fig. S2
Procedure: Figure S2. The accumulation of Hoechst 33342 in S. Typhimurium ATCC 14028 treated
with escalated concentrations of SW14 for 1 h in the LPM medium was measured using a
fluorescence microplate reader. The data are presented as the mean ± SD (n = 3 per group).
ns: non-significant, P > 0.05; ***P < 0.001; ****P < 0.0001.
Hoechst 33342 accumulation assay
Overnight-grown S. Typhimurium cultured in LB medium was diluted 1:50 in LPM
medium and incubated at 37°C for 3 h. The bacterial suspension was adjusted to an OD600
of 0.1 in fresh LPM medium supplemented with 2.5 µM Hoechst 33342 (Thermo Fisher
Scientific) followed by treatment of mock (DMSO) or SW14 (0.03125 – 8 µM in DMSO)
for 1 h. Bacterial cells which were treated with high temperature (90° C) for 10 min (heat-
killed) rapidly accumulated Hoechst 33342 and served as positive control. Fluorescence
was monitored on a SpectraMax M5 (Molecular devices) with a 355 nm excitation filter
and 460 nm emission filter. The percent inhibition was calculated by the equation: 100 ´
[(SW14-treated – mock) / (Heat-killed – mock)].

[2] = tested on: S. Typhimurium ATCC 14028; test: Analysis of bacterial susceptibility to H2O2 (CFU); assay type: cell-based, Salmonella enterica serovar Typhimurium; conditions: SW14 0.5 μM, 1 h
Procedure: Overnight-grown S. Typhimurium cultured in LB medium were diluted 1:50 in LPM medium or LB medium followed by incubation at 37°C for 3 h. The bacterial suspension was adjusted to an OD600 of 0.2 in fresh LPM medium or LB medium, exposed to SW14 and H2O2 for 1 h at 37°C with agitation, then serially diluted 10-fold in PBS, and spread on LB agar plates. After incubation at 37°C for 18 h, the number of colonies was counted, and the results are expressed as CFU/mL.

Clc1ccc2c(c1)C(NCCN1CCNCC1)=Nc1ccccc1O2 [SW14]
efflux pump activity in S. Typhimurium [1]: efflux pump suppressive effect | susceptibility of S. Typhimurium to H2O2 ([2]; minimal LPM medium): significantly increased | susceptibility of S. Typhimurium to H2O2 ([2]; nutrient-rich LB broth): not in nutrient-rich LB broth
